Results: the METLIN SMRT retention time set (Domingo-Almenara et al. 2019)

Test: gradient 5% acetonitrile 3 min, to 50% in 2 min, to 85% in 15 min, held 3 min, 100 µL/min
Details: column: Zorbax Extend-C18 2.1 x 50 mm; eluents: water / acetonitrile, 0.1% formic acid
In short: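 The mobile phases were water and acetonitrile, each with 0.1% formic acid, pumped at 100 μL/min through a Zorbax Extend-C18 column (2.1 × 50 mm, 1.8 μm). Pure standards were injected as mixtures of ~100 molecules and detected by a quadrupole time-of-flight mass spectrometer in positive and negative ionization mode. Retention time came from computationally picked adduct peaks, each inspected by hand.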

Row | RP-LC retention time [s] | Structure (SMILES)
1 | 725 | CCN1CCn2cc(S(=O)(=O)Nc3cc(F)ccc3C)cc2C1=O
2 | 525 | CN(C)c1ccc(CCCNC(=O)C2CC2)cc1
3 | 638 | COc1ccc(Nc2c(C(=O)N3CCCCCC3)cnc3nc(C)ccc23)cc1
4 | 605 | Clc1cc(Br)ccc1-c1ccc(CNCC2CCNCC2)o1
5 | 561 | COCCNC(=O)c1cn2cccc(C)c2n1
6 | 667 | Nc1nc(SCC(=O)Nc2cccc(-c3nc4ccccc4s3)c2)n[nH]1
7 | 556 | COC(=O)N1CCc2ccccc2C1C(=O)NCCCn1ccnc1 (stereo not given)
8 | 805 | Cc1nnc(-c2cc(C)n(CC(=O)Nc3cccc(Cl)c3)c2C)o1
9 | 816 | CCc1cccc(NS(=O)(=O)c2cc3n(c2)CCN(C(C)C)C3=O)c1
10 | 622 | COc1cccc(CN2CCn3c(nnc3[C@@H]3C[C@@H](O)CN3Cc3ccccc3)C2)c1
11 | 1150 | CCc1ccc(-c2nc(-c3ccc4nnn(C)c4c3)no2)cc1
12 | 646 | CN1C(=O)CSc2cnn(CC(=O)NC3CCCCC3)c(=O)c21
13 | 1120 | COCCCn1c(=O)c2ccccc2n(Cc2nc(-c3ccc(OC(C)C)cc3)no2)c1=O
14 | 723 | CCOC(=O)CNC(=O)N1CCc2cc(-c3ccc(C(=O)N4CCOCC4)cc3)ccc21
15 | 638 | CCN(CC)CCNC(=O)c1sc(COc2ccccc2)nc1C
16 | 851 | CCC(C)NC(=O)c1cc2n(n1)CCCN(Cc1cccc(C)c1)C2=O (stereo not given)
17 | 713 | CCc1ccc(-c2cc3c(=O)n(CC(=O)NCC4CCCN4CC)nc(C)n3n2)cc1 (stereo not given)

Row | RP-LC retention time [s] | Structure (SMILES)
18 | 980 | Cc1cc(C)cc(C(=O)N2CCCC(C(=O)NCCC3=CCCCC3)C2)c1 (stereo not given)
19 | 609 | Cc1cc(=O)n(CC(=O)Nc2ccc(Br)cc2)c(N)n1
20 | 662 | CCc1ccc2c(c1)-c1ccccc1S(=O)(=O)N2CC(=O)N1CCN(C)CC1
21 | 1060 | COC(=O)c1cccc(COC(=O)C2=CN(Cc3ccccc3)S(=O)(=O)N=C2C)c1
22 | 842 | CCCCNC(=O)CCc1nc(N2CCCCCC2)c2c(C)noc2n1
23 | 581 | CCCCN(C)C(=O)c1ccc2c(c1)NC(=O)C(CC(C)C)N2 (stereo not given)
24 | 713 | COCCn1ncc(N2CCC(C(=O)N3CCc4ccccc43)C2)cc1=O (stereo not given)
25 | 777 | Cc1ccc2[nH]cc(CCN3CC(C(=O)Nc4ccc5c(c4)OCCO5)CC3=O)c2c1 (stereo not given)
26 | 614 | CC(CCNC(=O)CN1C(=O)C2CCCCN2c2ccc(C(=O)N3CCCC3)cc21)N1CCCC1 (stereo not given)
27 | 635 | CCC(C)C(=O)N1CC(N(Cc2ccncc2)CC(C)C)C1 (stereo not given)
28 | 858 | CCn1cc(-c2nc(CC(=O)Nc3ccc(OC)cc3)cs2)c2cccnc21
29 | 706 | COc1ccccc1NS(=O)(=O)c1c[nH]c2ncccc12
30 | 694 | CCn1cc(-c2ccc(Cl)cc2)cc1C(=O)NCCCN(C)C
31 | 542 | CS(=O)(=O)N1C[C@@H](COc2ccncc2)[C@H](c2ccccn2)C1
32 | 788 | CCCNC(=O)CCc1nc2ccccc2n(CC(=O)Nc2ccc(OCC)cc2)c1=O
33 | 601 | CCOC(=O)CNC(=O)N1CCN(Cc2nc3cc(-c4ccccc4)ccc3o2)CC1

The next lines start with the compound.

Row | Structure (SMILES) | RP-LC retention time [s]
34 | CCCS(=O)(=O)N1CC(=O)N(c2cccc(Cl)c2)C(C)(C(=O)NC2CCCCC2)C1 (stereo not given) | 955
35 | CCc1ccc(C2=C(C)C(N3CCC(C(=O)NCCN4CCCC4)CC3)=NS2(=O)=O)cc1 | 671
36 | O=C(NCCc1ccc(N2CCCC2)cc1)C(=O)Nc1ccc(OC(F)(F)F)cc1 | 1090
37 | COc1ccc(Cl)cc1S(=O)(=O)NC1CCc2nn(C)c(=O)n2CC1 (stereo not given) | 677
38 | O=C([C@@H]1C[C@H](F)CN1S(=O)(=O)Cc1ccc(Cl)cc1)N1CCCCC1 | 881
39 | O=c1c2scc(-c3cccc(F)c3)c2ncn1Cc1cccnc1 | 699
40 | O=C(NCc1ccc(F)cc1F)C1CCCN(c2nc3ccsc3c(=O)n2-c2ccc(F)cc2)C1 (stereo not given) | 885
41 | Cc1ccc2nc3c(c(C(=O)NCC(C)C)c2c1)CCC3 | 650
42 | Cc1ccccc1CN1CC(F)(F)C[C@H]1COc1ccncc1 | 821
43 | CCCCN(C)C(=O)C1CCN(c2nccc(C)n2)CC1 | 674
44 | COc1cc(Nc2c(C(=O)N3CCC(C)CC3)cnc3nc(C)ccc23)cc(OC)c1 | 662
45 | CCCCCn1c(=O)c2ccccc2n(Cc2nc(-c3ccc4c(c3)OCO4)no2)c1=O | 1180
46 | CCCNC(=O)C1CCCN(c2nc3ncn(CC(=O)NC4CCc5ccccc54)c(=O)c3s2)C1 (stereo not given) | 709
47 | CC(CCNC(=O)c1ccc2ccnc(N3CCN(c4ccc(F)cc4)CC3)c2c1)N1CCCC1 (stereo not given) | 597
48 | COc1ccc(-c2cc3c4nnc(CCC(=O)N5CCN(c6ccccn6)CC5)n4ccn3n2)cc1 | 605
49 | Cn1nc(-c2nnc(-c3ccccc3)o2)c2c1CCN(S(=O)(=O)c1ccc(F)cc1F)C2 | 955
50 | CCn1nc(C)n2cc(S(=O)(=O)NC(C)c3ccccc3)cc2c1=O (stereo not given) | 882
51 | CC(C)N(CCC(=O)c1ccc2ccccc2c1)Cc1ccccc1 | 859
52 | O=C(Cn1cccc1-c1nnc(-c2ccccc2)o1)NCCc1ccccc1 | 950

Row | Structure (SMILES) | RP-LC retention time [s]
53 | O=C(CSc1ccc(-c2ccco2)nn1)Nc1ccc(F)cc1F | 788
54 | CCC(NC(=O)c1cn2cc(C)ccc2n1)c1ccc(OC)cc1 (stereo not given) | 697
55 | CCS(=O)(=O)c1cccc(C(=O)Nc2nnc(-c3ccsc3)o2)c1 | 662
56 | COc1cccc(-c2ccc(NC(=O)C3=C(C(=O)O)CCC3)c(F)c2)c1 | 1080
57 | COc1ccc(Cl)cc1NS(=O)(=O)c1cc(-c2c(C)noc2NC(C)=O)ccc1OC | 823
58 | Cc1cccn2cc(-c3cccc(S(=O)(=O)N4CCCCC4)c3)nc12 | 700
59 | CCS(=O)(=O)Nc1ccc(-c2noc(COc3ccc(Cl)cc3)n2)cc1 | 1010
60 | Cc1[nH]nc2ccc(-c3cncc(OC[C@@H](N)Cc4ccccc4)c3)cc12 | 624
61 | CC1=C(c2ccc(F)cc2)S(=O)(=O)N=C1N1CCCN(C(=O)c2sccc2C)CC1 | 830
62 | COc1ccc(OC)c(CN2C[C@@H]3C(=O)N(C)C(=O)[C@@H]3C2)c1 | 574
63 | CCOC(=O)Cn1c(CN(C)Cc2ccccc2)nc2c1c(=O)n(C)c(=O)n2C | 643
64 | CC(C)CNC(=O)CCc1nc2ccccc2n(CC(=O)Nc2ccc(C(C)C)cc2)c1=O | 949
65 | O=C(C1CC1)N1CCN(c2nc(CN3CCCCCC3)cs2)CC1 | 1100
66 | CN1C(=O)C(C)(C(=O)Nc2ccccc2F)Oc2cccnc21 (stereo not given) | 780
67 | Cc1nn(-c2ccc(C(=O)NCc3ccco3)cc2)cc1NC(=O)C(C)C | 722
68 | c1ccc(CNc2cc(-n3cccn3)ncn2)cc1 | 832
69 | Cc1ccccc1NC(=O)Cn1c(N)nc(C)c(C)c1=O | 596
70 | CC(=O)N1c2ccc(S(=O)(=O)N3CCCC3)cc2CC1C(=O)NCc1ccc(N(C)C)cc1 (stereo not given) | 620
71 | Cc1cc(C)c(CNC(=O)c2c(C)sc3ccn(C)c(=O)c23)c(C)c1 | 921

Row | Structure (SMILES) | RP-LC retention time [s]
72 | O=C(c1cccc(Br)c1)N1CCN(Cc2noc3ccccc23)CC1 | 756
73 | CCS(=O)(=O)N1CC(=O)N(c2ccc(F)cc2C)C(C)(C(=O)NC2CCCCC2)C1 (stereo not given) | 919
74 | COC(=O)c1ncn2c1C(=O)N(Cc1cccc(C)c1)C(C)(C(=O)NCc1ccc(C)cc1)C2 (stereo not given) | 801
75 | Cc1cc(-c2nnc(NC(=O)c3ccc4c(c3)OCCO4)o2)c(C)o1 | 766
76 | COC(=O)c1c(C)[nH]c(C(=O)N2CCC(CC(=O)N3CCCCCC3)CC2)c1C | 715
77 | COc1ccc(NC(=O)N2CCCC(Cn3cnc4cccnc43)C2)cc1 (stereo not given) | 610
78 | O=C(Cn1nc2c(N3CCN(c4ccccc4)CC3)nccn2c1=O)Nc1cccc(Cl)c1 | 964
79 | CCc1nc2ncc(-c3ccnc(N4CCN(Cc5ccccc5)CC4)n3)c(C)n2n1 | 607
80 | N#Cc1cccc(-c2cn3c(n2)N(C(=O)c2cccnc2)CCC3)c1 | 641
81 | CCOc1ccc(CNC(=O)c2c(C)sc3ccn(C)c(=O)c23)cc1 | 786
82 | Cc1cccc(CN2C(=O)N(c3ccc(F)cc3)c3ncccc3S2(=O)=O)c1 | 1090
83 | COc1ccc2[nH]c(=O)c(CCC(=O)Nc3ccc(OC)c(OC)c3)cc2c1 | 666
84 | Cc1nnsc1C(=O)Nc1ccc2c(c1)OCC(C)(C)C(=O)N2C | 605
85 | COCc1c(C(=O)O)nnn1-c1ccc(OC)c(Cl)c1 | 706
86 | COC(=O)C1=C(C)NC2=C(C(=O)c3ccccc32)C1c1ccccc1OC (stereo not given) | 901
87 | Cc1cccc(NC(=O)N2[C@H]3CC[C@@H]2c2cnc(-c4ccccc4)nc2C3)c1 | 982
88 | O=C(NCC1CCCCC1)c1ccc(-c2nc3cccnc3n2C2CCCCC2)cc1 | 1130
89 | CC(C)n1cnc(S(=O)(=O)N2CCCC(C(=O)N3CCN(c4ccccn4)CC3)C2)c1 (stereo not given) | 581
90 | c1ccc(-c2nnc3nc(N4CCCCC4)nc(N4CCCCC4)n23)cc1 | 1260
